Patent US4296126A, “3-Aryloxy-3-aryl-propaneamines and their method of use” (Roussel Uclaf, priority 1978, dated 1981)
Where a name gives a salt, the structure may show the parent alone.

Legend:
[1] = Acute toxicity, LD50 in mice after intraperitoneal administration; conditions: mouse, in vivo, ip, determined 48 hours after administration
Method: The LD50 or lethal dose at which 50% of the animals died after intraperitoneal administration of the test compound to mice was determined 48 hours after the administration.

dogs = assay: Anorexigenic activity in dogs (method of Adams et al); type: in vivo, dog; conditions: Canis lupus familiaris, po, compound given in lieu of first ball, balls offered every 10 minutes for 7 hours, activity grew with increasing doses, read-out: dose at which anorexigenic activity was shown (refusal of food balls)
Method: The anorexigenic activity was studied in dogs using the method of Adams et al [J. Pharm. Sci., Vol. 53, (1964), p. 1405]. On the day of the test with the compound presumed to be anorexigenic, the individual daily ration of the animal was divided into about equal balls (10 to 20 g) which were offered to the dog every 10 minutes for 7 hours. Normally, the animal will regularly accept the successive balls when they are presented.

CN(C)CCC(Oc1ccc([N+](=O)[O-])cc1)c1ccccc1 (centres unmarked) [Example 1, N,N-dimethyl-γ-(4-nitrophenoxy)-benzene-propanamine oxalate] gave an LD50 at 48 h [1] of about 75 mg/kg and a minimal effective dose (dogs) of 3 mg/kg.
